Where “and” joins values, the source holds several entries; their conditions need not be identical. Equal entries are not always repeated. Where two headings read alike, the source gives them in different places.
Key:
[1] = ref [2],[4], cited from earlier work
[2] = retina to scleral (R-S) direction, isolated rabbit RCS; ref [4]; cited from earlier work
[3] = ref Ameer et al., [10]; cited from earlier work
[4] = vitreous humor, two-compartment model, n=4
in vivo = conditions: male, New Zealand white, rabbit

COc1ccc([C@@H]2CC(=O)c3c(O)cc(O[C@@H]4O[C@H](CO[C@@H]5O[C@@H](C)[C@H](O)[C@@H](O)[C@H]5O)[C@@H](O)[C@H](O)[C@H]4O)cc3O2)cc1O [hesperidin, Hesperidin]
log P [1]: 1.79 and 1.78
apparent permeability [2]: 1.51 ± 0.78 × 10^−6 cm/s
oral bioavailability [3]: < 25%
AUC ([4]; intravitreal dose 1.5 µg): 651 ± 88 µg·min/mL
Alpha ([4]; intravitreal dose 1.5 µg): 0.0267 ± 0.0077 min⁻¹
Alpha_HL ([4]; intravitreal dose 1.5 µg): 28 ± 7 min
Beta ([4]; intravitreal dose 1.5 µg): 0.0016 ± 0.0004 min⁻¹
Beta_HL ([4]; intravitreal dose 1.5 µg): 386 ± 116 min
CL ([4]; intravitreal dose 1.5 µg): 0.0027 ± 0.0003 mL/min
CLD2 ([4]; intravitreal dose 1.5 µg): 0.0058 ± 0.0010 mL/min
Cmax ([4]; intravitreal dose 1.5 µg): 3260 ± 1350 ng/mL
MRT ([4]; intravitreal dose 1.5 µg): 9.08 ± 1.77 h
V2 ([4]; intravitreal dose 1.5 µg): 0.75 ± 0.62 mL
Vss ([4]; intravitreal dose 1.5 µg): 1.48 ± 0.42 mL
AUC ([4]; intravitreal dose 4.5 µg): 1575 ± 164 µg·min/mL
Alpha ([4]; intravitreal dose 4.5 µg): 0.0249 ± 0.0109 min⁻¹
Alpha_HL ([4]; intravitreal dose 4.5 µg): 31 ± 11 min
Beta ([4]; intravitreal dose 4.5 µg): 0.0017 ± 0.0003 min⁻¹
Beta_HL ([4]; intravitreal dose 4.5 µg): 407 ± 58 min
CL ([4]; intravitreal dose 4.5 µg): 0.0029 ± 0.0003 mL/min
CLD2 ([4]; intravitreal dose 4.5 µg): 0.0054 ± 0.0026 mL/min
Cmax ([4]; intravitreal dose 4.5 µg): 10820 ± 1120 ng/mL
MRT ([4]; intravitreal dose 4.5 µg): 7.47 ± 0.917 h
V2 ([4]; intravitreal dose 4.5 µg): 0.87 ± 0.21 mL
Vss ([4]; intravitreal dose 4.5 µg): 1.29 ± 0.21 mL
AUC ([4]; intravitreal dose 15 µg): 4835 ± 861 µg·min/mL
Alpha ([4]; intravitreal dose 15 µg): 0.0358 ± 0.0084 min⁻¹
Alpha_HL ([4]; intravitreal dose 15 µg): 20 ± 5 min
Beta ([4]; intravitreal dose 15 µg): 0.0014 ± 0.0004 min⁻¹
Beta_HL ([4]; intravitreal dose 15 µg): 466 ± 98 min
CL ([4]; intravitreal dose 15 µg): 0.0032 ± 0.0005 mL/min
CLD2 ([4]; intravitreal dose 15 µg): 0.0130 ± 0.0026 mL/min
Cmax ([4]; intravitreal dose 15 µg): 25230 ± 3020 ng/mL
MRT ([4]; intravitreal dose 15 µg): 11.1 ± 3.07 h
V2 ([4]; intravitreal dose 15 µg): 1.46 ± 0.40 mL
Vss ([4]; intravitreal dose 15 µg): 2.07 ± 0.35 mL

COc1ccc([C@@H]2CC(=O)c3c(O)cc(O)cc3O2)cc1O [hesperetin, Hesperetin]
apparent permeability [2]: 2.52 ± 0.51 × 10^−6 cm/s
Vd (in vivo): 0.001 to 0.0015 L
AUC (in vivo; 1.5 ug): 2980 ng·h/mL
Cmax (in vivo; 1.5 ug): 1020 ± 200 ng/mL
clearance (in vivo; 1.5 ug, CL): 0.0093 ± 0.004 mL/min
half-life (in vivo; 1.5 ug, T1/2): 1.83 ± 0.467 h
AUC (in vivo; 4.5 ug): 7920 ng·h/mL
Cmax (in vivo; 4.5 ug): 4510 ± 570 ng/mL
clearance (in vivo; 4.5 ug, CL): 0.0096 ± 0.0015 mL/min
half-life (in vivo; 4.5 ug, T1/2): 1.48 ± 0.233 h
AUC (in vivo; 15 ug): 29100 ng·h/mL
Cmax (in vivo; 15 ug): 14700 ± 1990 ng/mL
clearance (in vivo; 15 ug, CL): 0.0086 ± 0.0007 mL/min
half-life (in vivo; 15 ug, T1/2): 1.38 ± 0.167 h
clearance (in vivo; 15 ug, clearance rate (CL)): 0.0086 to 0.0096 mL/min
half-life (in vivo; 15 ug, elimination half-life (T1/2)): 1.39 to 1.84 h

glucosyl hesperidin [hesperidin G]
log P [1]: −3.2
log P ([1]; listed as Hesperidin G): < −3.2
AUC ([4]; intravitreal dose 1.5 µg): 688 ± 47 µg·min/mL
Alpha ([4]; intravitreal dose 1.5 µg): 0.045 ± 0.019 min⁻¹
Alpha_HL ([4]; intravitreal dose 1.5 µg): 17 ± 6 min
Beta ([4]; intravitreal dose 1.5 µg): 0.0014 ± 0.0002 min⁻¹
Beta_HL ([4]; intravitreal dose 1.5 µg): 495 ± 66 min
CL ([4]; intravitreal dose 1.5 µg): 0.0022 ± 0.0002 mL/min
CLD2 ([4]; intravitreal dose 1.5 µg): 0.011 ± 0.002 mL/min
Cmax ([4]; intravitreal dose 1.5 µg): 3790 ± 1060 ng/mL
MRT ([4]; intravitreal dose 1.5 µg): 10.8 ± 1.5 h
Vss ([4]; intravitreal dose 1.5 µg): 1.41 ± 0.14 mL
AUC ([4]; intravitreal dose 4.5 µg): 1811 ± 269 µg·min/mL
Alpha ([4]; intravitreal dose 4.5 µg): 0.028 ± 0.011 min⁻¹
Alpha_HL ([4]; intravitreal dose 4.5 µg): 29 ± 16 min
Beta ([4]; intravitreal dose 4.5 µg): 0.0015 ± 0.0002 min⁻¹
Beta_HL ([4]; intravitreal dose 4.5 µg): 468 ± 82 min
CL ([4]; intravitreal dose 4.5 µg): 0.0025 ± 0.0004 mL/min
CLD2 ([4]; intravitreal dose 4.5 µg): 0.003 ± 0.001 mL/min
Cmax ([4]; intravitreal dose 4.5 µg): 20160 ± 6120 ng/mL
MRT ([4]; intravitreal dose 4.5 µg): 6.97 ± 0.35 h
Vss ([4]; intravitreal dose 4.5 µg): 1.05 ± 0.013 mL
AUC ([4]; intravitreal dose 15 µg): 6167 ± 168 µg·min/mL
Alpha ([4]; intravitreal dose 15 µg): 0.027 ± 0.007 min⁻¹
Alpha_HL ([4]; intravitreal dose 15 µg): 27 ± 8 min
Beta ([4]; intravitreal dose 15 µg): 0.0017 ± 0.0003 min⁻¹
Beta_HL ([4]; intravitreal dose 15 µg): 414 ± 70 min
CL ([4]; intravitreal dose 15 µg): 0.0024 ± 0.0002 mL/min
CLD2 ([4]; intravitreal dose 15 µg): 0.007 ± 0.001 mL/min
Cmax ([4]; intravitreal dose 15 µg): 32050 ± 4390 ng/mL
MRT ([4]; intravitreal dose 15 µg): 8.62 ± 1.33 h
Vss ([4]; intravitreal dose 15 µg): 1.25 ± 0.16 mL
